Experiments:
[1] = SEM of crystallized suspensions and dried products (crystal size grade, particle size); type: physicochemical; design: key: 5 = nanocrystals; 1 = large crystals
Protocol: SEM images were captured using the Zeiss Sigma 300 VP SEM instruments. Samples were dispersed into water and filtered with 0.1 μm filter. Filters were dried, transferred to SEM sample holders, and coated with a 5 nm thick layer of platinum. Amorphous API nanoparticles (budesonide, ezetimibe, ceritinib, and apalutamide) were added as dry powders to aqueous polymer solutions. The mixtures were either • (i) mixed with a magnetic stirrer and ultrasonicated until API was completely surrounded by water (wetted). The stirring was continued for 16-24 h at ambient temperature or • (ii) blended with a metal spatula and allowed to stay at room temperature for 18-24 h. The suspensions formed were analyzed after 18-24 h. SEM and XRD samples were prepared as described above. Suspension comprising nanosized APIs prepared as shown above were dried in a vacuum desiccator overnight. The solid materials were grounded to produce powders. The powders were analyzed on XRD and SEM. The powders comprising nanosized APIs were used in the stability, permeability, and dissolution tests as described above.

[2] = Crystallization of amorphous nanosized API in aqueous polymer solution, polymorph/crystallinity by XRD; type: physicochemical
Protocol: XRPD measurements were carried out using the Malvern PANalytical Empyrean X-ray diffractometer equipped with a Cu Kα (1.54 Å) source, MultiCore optics and a solid-state PIXcel3D detector. By using Kapton tape the samples were attached onto aluminum or polycrystalline silicon sample holders. Dried slurries were measured without further sample preparation under Kapton tape and suspensions were filtered, dried, and filters were attached with double sided tape. The samples were measured in the reflection geometry in a spinning measurement stage. The measurement range was 5-40 (°2θ). The step size and time per step values were varied depending on the counts per second obtained.
Determination of crystallization of API nanoparticles was evaluated via kinetic study of suspension. Accordingly, XRD measurement was done for suspension in different time points.
Amorphous API nanoparticles (budesonide, ezetimibe, ceritinib, and apalutamide) were added as dry powders to aqueous polymer solutions. The mixtures were either • (i) mixed with a magnetic stirrer and ultrasonicated until API was completely surrounded by water (wetted). The stirring was continued for 16-24 h at ambient temperature or • (ii) blended with a metal spatula and allowed to stay at room temperature for 18-24 h.
The suspensions formed were analyzed after 18-24 h. SEM and XRD samples were prepared as described above.

[3] = HPMC 1 wt.-%, SLS 0.2 wt.-%, mAPI 25 mg/g
[4] = HPMC 1 wt.-%, no SLS, mAPI 25 mg/g
[5] = HPMC 2.5 wt.-%, SLS 0.2 wt.-%, mAPI 25 mg/g
[6] = HPMC 2.5 wt.-%, no SLS, mAPI 25 mg/g
[7] = HPMC 5 wt.-%, SLS 0.2 wt.-%, mAPI 100 mg/g
[8] = HPMC 5 wt.-%, SLS 0.2 wt.-%, mAPI 150 mg/g
[9] = HPMC 5 wt.-%, SLS 0.2 wt.-%, mAPI 200 mg/g
[10] = PVPVA 1 wt.-%, SLS 0.2 wt.-%, mAPI 25 mg/g
[11] = PVPVA 1 wt.-%, no SLS, mAPI 25 mg/g polymer solution
[12] = PVPVA 2.5 wt.-%, SLS 0.2 wt.-%, mAPI 25 mg/g
[13] = PVPVA 2.5 wt.-%, no SLS, mAPI 25 mg/g
[14] = PVPVA 5 wt.-%, SLS 0.2 wt.-%, mAPI 25 mg/g
[15] = PVPVA 5 wt.-%, no SLS, mAPI 25 mg/g
[16] = PVPVA 10 wt.-%, SLS 0.2 wt.-%, mAPI 25 mg/g
[17] = PVPVA 10 wt.-%, no SLS, mAPI 25 mg/g
[18] = PVPVA 20 wt.-%, no SLS, mAPI 200 mg/g
[19] = PVPVA 25 wt.-%, SLS 0.2 wt.-%, mAPI 500 mg/g
[20] = PVPVA 25 wt.-%, no SLS, mAPI 250 mg/g
[21] = PVPVA 25 wt.-%, no SLS, mAPI 500 mg/g
[22] = PVPVA 45 wt.-%, SLS 0.2 wt.-%, mAPI 450 mg/g
[23] = PVPVA 45 wt.-%, no SLS, mAPI 450 mg/g
[24] = Poloxamer 407 1 wt.-%, SLS 0.2 wt.-%, mAPI 25 mg/g
[25] = Poloxamer 407 1 wt.-%, no SLS, mAPI 25 mg/g
[26] = Poloxamer 407 2.5 wt.-%, SLS 0.2 wt.-%, mAPI 25 mg/g
[27] = Poloxamer 407 2.5 wt.-%, no SLS, mAPI 25 mg/g
[28] = Poloxamer 407 5 wt.-%, SLS 0.2 wt.-%, mAPI 25 mg/g
[29] = Poloxamer 407 5 wt.-%, no SLS, mAPI 25 mg/g
[30] = Poloxamer 407 15 wt.-%, SLS 0.2 wt.-%, mAPI 150 mg/g
[31] = Poloxamer 407 15 wt.-%, SLS 0.2 wt.-%, mAPI 300 mg/g
[32] = Poloxamer 407 15 wt.-%, SLS 0.2 wt.-%, mAPI 450 mg/g
[33] = Poloxamer 407 15 wt.-%, no SLS, mAPI 150 mg/g
[34] = Poloxamer 407 15 wt.-%, no SLS, mAPI 300 mg/g
[35] = Poloxamer 407 15 wt.-%, no SLS, mAPI 450 mg/g

Grade (SEM, visual inspection) [1, 3]: 5
Grade (SEM, visual inspection) [1, 4]: 5
Grade (SEM, visual inspection) [1, 5]: 5
Grade (SEM, visual inspection) [1, 6]: 4
Grade (SEM, visual inspection) [1, 7]: 5
Grade (SEM, visual inspection) [1, 8]: 5
Grade (SEM, visual inspection) [1, 9]: 5
Grade (SEM, visual inspection) [1, 10]: 4
Grade (SEM, visual inspection) [1, 11]: 4
Grade (SEM, visual inspection) [1, 12]: 4
Grade (SEM, visual inspection) [1, 13]: 4
Grade (SEM, visual inspection) [1, 14]: 4
Grade (SEM, visual inspection) [1, 15]: 4
Grade (SEM, visual inspection) [1, 16]: 5
Grade (SEM, visual inspection) [1, 17]: 4
Grade (SEM, visual inspection) [1, 18]: 5
Grade (SEM, visual inspection) [1, 19]: 5
Grade (SEM, visual inspection) [1, 20]: 5
Grade (SEM, visual inspection) [1, 21]: 5
Grade (SEM, visual inspection) [1, 22]: 5
Grade (SEM, visual inspection) [1, 23]: 5
Grade (SEM, visual inspection) [1, 24]: 2
Grade (SEM, visual inspection) [1, 25]: 2
Grade (SEM, visual inspection) [1, 26]: 2
Grade (SEM, visual inspection) [1, 27]: 2
Grade (SEM, visual inspection) [1, 28]: 2
Grade (SEM, visual inspection) [1, 29]: 2
Grade (SEM, visual inspection) [1, 30]: 1
Grade (SEM, visual inspection) [1, 31]: 1
Grade (SEM, visual inspection) [1, 32]: 1
Grade (SEM, visual inspection) [1, 33]: 1
Grade (SEM, visual inspection) [1, 34]: 1
Grade (SEM, visual inspection) [1, 35]: 1
Polymorph [2, 3]: new
Polymorph [2, 4]: new
Polymorph [2, 5]: new
Polymorph [2, 6]: new
Polymorph [2, 7]: new
Polymorph [2, 8]: new
Polymorph [2, 9]: new
Polymorph ([2]; HPMC 5 wt.-%, SLS 0.2 wt.-%, mAPI 250 mg/g): new
Polymorph ([2]; HPMC 5 wt.-%, SLS 0.2 wt.-%, mAPI 300 mg/g): new
Polymorph ([2]; HPMC 5 wt.-%, no SLS, mAPI 100 mg/g): amorphous
Polymorph [2, 10]: new
Polymorph [2, 11]: new
Polymorph [2, 12]: new
Polymorph [2, 13]: new
Polymorph [2, 14]: new
Polymorph [2, 15]: new
Polymorph [2, 16]: new
Polymorph [2, 17]: new
Polymorph ([2]; PVPVA 15 wt.-%, no SLS, mAPI 450 mg/g): amorphous
Polymorph ([2]; PVPVA 15 wt.-%, no SLS, mAPI 600 mg/g): amorphous
Polymorph [2, 18]: new
Polymorph ([2]; PVPVA 20 wt.-%, no SLS, mAPI 600 mg/g): amorphous
Polymorph [2, 19]: new
Polymorph [2, 20]: new
Polymorph [2, 21]: new
Polymorph [2, 22]: new
Polymorph [2, 23]: new
Polymorph [2, 24]: Form B
Polymorph [2, 25]: Form B
Polymorph [2, 26]: Form B
Polymorph [2, 27]: Form B
Polymorph [2, 28]: Form B
Polymorph [2, 29]: Form B
Polymorph [2, 30]: Form B
Polymorph [2, 31]: Form B
Polymorph [2, 32]: Form B
Polymorph [2, 33]: Form B
Polymorph [2, 34]: Form B
Polymorph [2, 35]: Form B
Structure (SMILES): CNC(=O)c1ccc(N2C(=S)N(c3cnc(C#N)c(C(F)(F)F)c3)C(=O)C23CCC3)cc1F [Apa, apalutamide]
